The subject of data set [1] is Arthrobacter aurescens DSM20116. Kind of data set: Drop plate method assay, antimicrobial activity. It counts as cell-based. Further details: key: high activity (++); Medium activity (+); no activity(-). The conditions noted are these: 10 µl of 1 mg/ml in DMSO dropped on seeded agar plate, read after approximately 10-16 h. The method, then: (§1) A drop plate method assay (Alajlani, M.; et al. Chromatographia 2016, 79, 1527-1532.) with modification was performed to detect the antimicrobial and antifungal activity against the Gram positive bacteria Arthrobacter aurescens and the yeast strain Candida krusei. All compounds were dissolved in DMSO to a concentration of 1 mg/ml. Using sterile micropipette 10 µl of each compound was directly but gently dropped over seeded agar plate with test organism. The liquid was allowed to diffuse before the plate was inverted and incubated. The growth conditions for every strain was considered. The results were noted when a lawn of the indicator organism appeared on the plate (approximately 10-16 h). The magnitude of activity was noted as high activity (++), Medium activity (+),and no activity(-). Table 2: Antimicrobial and antifungal activities of compounds were detected over the test organisms.

The test system of a further data set is Candida krusei CCMM L10. The experiment in a line: Drop plate method assay, antifungal activity. Type of data set: cell-based. Further details: key: high activity (++); Medium activity (+); no activity(-). The conditions noted are these: 10 µl of 1 mg/ml in DMSO dropped on seeded agar plate, read after approximately 10-16 h. The method, then: as §1
The test system of another data set is L-6 cells. Kind of data set: cells. It counts as cell-based, rat. The conditions noted are these: for IC50: Rattus norvegicus, L6, cytotoxicity against L-6 cells, 70 h + 2 h incubation with Alamar Blue. The method, then: Assays were performed in 96-well microtiter plates, each well containing 100 µl of RPMI 1640 medium supplemented with 1% L-glutamine (200 mM) and 10% fetal bovine serum, and 4000 L-6 cell, a primary cell line derived from rat skeletal myoblasts (Page, C.; et al. J. Oncol. 1993, 3, 473-476; Ahmed, S. A.; Gogal, R. M.; et al. J. Immunol. Methods 1994, 170 211-224).
Serial drug dilutions of eleven 3-fold dilution steps covering a range from 100 to 0.002 µg/ml were prepared. After 70 hours of incubation the plates were inspected under an inverted microscope to assure growth of the controls and sterile conditions. 10 µl of Alamar Blue was then added to each well and the plates incubated for another 2 hours. Then the plates were read with a Spectramax Gemini XS microplate fluorometer (Molecular Devices Cooperation, USA) using an excitation wave length of 536 nm and an emission wave length of 588 nm. The IC50 values were calculated by linear regression (Huber, W.; et al. Acta Trop. 1993, 55, 257-261.) from the sigmoidal dose inhibition curves using SoftmaxPro software (Molecular Devices Cooperation, USA). Podophyllotoxin (Sigma P4405) was used as control. Table 1: Results for cytotoxicity against L-6 cells expressed as IC50 values (µM)
On the technique in general: The colour change of resazurin is a common sign of viable cells or microbes.

Structures are written as SMILES.

In general, IC50 refers to the concentration needed to halve the response being measured.

Consider `CC(C)=C/C(=C\C=NS(=O)(=O)c1ccc(Cl)cc1)N1CCCCC1` [Example 5, (2E)-4-Chloro-N-[5-methyl-3-(piperidin-1-yl)hexa-2,4-dien-1-ylidene]benzenesulfonamide], for which, in data set [1], the “magnitude of activity, Arthrobacter aurescens DSM20116” value is listed as “++”. The “magnitude of activity, Candida krusei CCMM L10” value in the data set with Candida krusei CCMM L10 is given as “+”.
For `CC(C)=C/C(=C\C=NS(C)(=O)=O)N1CCCCC1` [Example 10, (2E)-N-[5-Methyl-3-(piperidin-1-yl)hexa-2,4-dien-1-ylidene]methanesulfonamide], the “magnitude of activity, Arthrobacter aurescens DSM20116” value in data set [1] is listed as “++”. Further, in the data set on Candida krusei CCMM L10, the “magnitude of activity, Candida krusei CCMM L10” value is on record as “+”.
As to `CC(C)=C/C(=C\C=NS(=O)(=O)c1ccc([N+](=O)[O-])cc1)N1CCCC1.Cl` [Example 3, (2E)-N-{5-Methyl-1-[(4-nitrophenyl)sulfonylimino]hexa-2,4-dien-3-yl}pyrrolidine-1-ium chloride], in the data set on L-6 cells, the “IC50 for cytotoxicity relative to the investigated concentration” value came out at 100 times and the half-inhibitory concentration (IC50) came out at 250 µM. In addition, the “magnitude of activity, Arthrobacter aurescens DSM20116” value in data set [1] was “++”. Also, the “magnitude of activity, Candida krusei CCMM L10” value in the data set on Candida krusei CCMM L10 was “+”.
Take `CC(C)=C/C(=C\C=NS(=O)(=O)c1ccc([N+](=O)[O-])cc1)N1CCCCC1` [Example 2, (2E)-N-{5-Methyl-1-[(4-nitrophenyl)sulfonylimino]hexa-2,4-dien-3-yl}piperidin-1-ium chloride]: in the data set with L-6 cells, the half-inhibitory concentration (IC50) came out at 206 µM.
In the case of `CC(C)=C/C(=C\C=NS(=O)(=O)c1ccc(C)cc1)N1CCCC1` [Example 8, (2E)-4-Methyl-N-[5-methyl-3-(pyrrolidin-1-yl)hexa-2,4-dien-1-ylidene]benzenesulfonamide], the “magnitude of activity, Arthrobacter aurescens DSM20116” value in data set [1] is on record as “++”. The “magnitude of activity, Candida krusei CCMM L10” value in the data set with Candida krusei CCMM L10 is “+”.
The matching figures for `CC(C)=C/C(=C\C=NS(=O)(=O)c1ccccc1)N(C)C` [Example 7, (2E)-N-(3-Dimethylamino-5-methylhexa-2,4-dien-1-ylidene)benzenesulfonamide]: “++” and “+”.
The matching figures for `CC(C)=C/C(=C\C=NS(=O)(=O)c1ccccc1)N1CCCC1` [Example 6, 2(E)-N-[5-Methyl-3-(pyrrolidin-1-yl)hexa-2,4-dien-1-ylidene]benzenesulfonamide]: “++” and “+”.

The values above are taken from patent publication EP4043434A1, “NOVEL SULFONYLIMINES” (Karl-Franzens-Universität Graz, priority 2021, dated 2022).
